Assay results taken from the supplement of paper PMC10307832.

Tests used:
Experiment in all cases: relative viability (nuclei count vs DMSO), 5 days (fraction); higher = more cells survive
Sorafenib + Luminespib = compound: CNC(=O)c1cc(Oc2ccc(NC(=O)Nc3ccc(Cl)c(C(F)(F)F)c3)cc2)ccn1 [Sorafenib] + CCNC(=O)c1noc(-c2cc(C(C)C)c(O)cc2O)c1-c1ccc(CN2CCOCC2)cc1 [Luminespib] (partner 0.01 µM)
Procedure, shortened: (§1)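 Relative viability is defined as nuclei in treated wells over nuclei in vehicle wells. Duplicate plates were run and medians reported. Lung cancer cell lines in 1536-well plates were dosed by pin tool one day after seeding, with one drug or with a fixed anchor-drug dose plus five library-drug doses (not always all listed) in √10 steps, and nuclei were counted after 5 days.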

Sorafenib + Lapatinib = compound: CNC(=O)c1cc(Oc2ccc(NC(=O)Nc3ccc(Cl)c(C(F)(F)F)c3)cc2)ccn1 [Sorafenib] + CS(=O)(=O)CCNCc1ccc(-c2ccc3ncnc(Nc4ccc(OCc5cccc(F)c5)c(Cl)c4)c3c2)o1 [Lapatinib] (partner 2 µM)
Procedure, shortened: as §1

Sorafenib + OSI-027 = compound: CNC(=O)c1cc(Oc2ccc(NC(=O)Nc3ccc(Cl)c(C(F)(F)F)c3)cc2)ccn1 [Sorafenib] + COc1cccc2cc(-c3nc([C@H]4CC[C@H](C(=O)O)CC4)n4ncnc(N)c34)[nH]c12 [OSI-027] (partner 0.5 µM)
Procedure, shortened: as §1

Sorafenib + Bortezomib = compound: CNC(=O)c1cc(Oc2ccc(NC(=O)Nc3ccc(Cl)c(C(F)(F)F)c3)cc2)ccn1 [Sorafenib] + CC(C)C[C@H](NC(=O)[C@H](Cc1ccccc1)NC(=O)c1cnccn1)B(O)O [Bortezomib] (partner 0.002 µM)
Procedure, shortened: as §1

Sorafenib + Alpelisib = compound: CNC(=O)c1cc(Oc2ccc(NC(=O)Nc3ccc(Cl)c(C(F)(F)F)c3)cc2)ccn1 [Sorafenib] + Cc1nc(NC(=O)N2CCC[C@H]2C(N)=O)sc1-c1ccnc(C(C)(C)C(F)(F)F)c1 [Alpelisib] (partner 2 µM)
Procedure, shortened: as §1

| Cell Line | relative viability (Sorafenib + Luminespib; first compound 0.08 µM) | relative viability (Sorafenib + Luminespib; first compound 0.253 µM) | relative viability (Sorafenib + Luminespib; first compound 2.53 µM) | relative viability (Sorafenib + Luminespib; first compound 8 µM) | relative viability (Sorafenib + Lapatinib; first compound 0.08 µM) | relative viability (Sorafenib + Lapatinib; first compound 0.253 µM) | relative viability (Sorafenib + Lapatinib; first compound 2.53 µM) | relative viability (Sorafenib + Lapatinib; first compound 8 µM) | relative viability (Sorafenib + OSI-027; first compound 0.08 µM) | relative viability (Sorafenib + OSI-027; first compound 0.253 µM) | relative viability (Sorafenib + OSI-027; first compound 2.53 µM) | relative viability (Sorafenib + OSI-027; first compound 8 µM) | relative viability (Sorafenib + Bortezomib; first compound 0.08 µM) | relative viability (Sorafenib + Bortezomib; first compound 2.53 µM) | relative viability (Sorafenib + Bortezomib; first compound 8 µM) | relative viability (Sorafenib + Alpelisib; first compound 0.08 µM) | relative viability (Sorafenib + Alpelisib; first compound 0.253 µM) | relative viability (Sorafenib + Alpelisib; first compound 2.53 µM) | relative viability (Sorafenib + Alpelisib; first compound 8 µM) | relative viability (Sorafenib + Bortezomib; first compound 0.253 µM) |
| --- | --- | --- | --- | --- | --- | --- | --- | --- | --- | --- | --- | --- | --- | --- | --- | --- | --- | --- | --- | --- |
| NCI-H838 | 0.346 | 0.33 | 0.402 | 0.243 | 1.1 | 0.961 | 1.16 | 0.823 | 0.52 | 0.438 | 0.615 | 0.539 | 0.875 | 1.15 | 0.651 | 1.08 | 1.1 | 1.15 | 0.905 | – |
| NCI-H596 | 0.889 | 1.04 | 0.977 | 0.911 | 1.07 | 1.11 | 1.52 | 0.995 | 0.732 | 0.664 | 0.671 | 0.447 | 1.02 | 1.19 | 1.14 | 0.471 | 0.447 | 0.521 | 0.509 | – |
| HOP-62 | 0.981 | 0.865 | 0.705 | 0.886 | 0.928 | 0.872 | 0.879 | 0.93 | 0.848 | 0.631 | 0.759 | 0.657 | 0.639 | – | 0.232 | 0.995 | 0.775 | 0.765 | 0.794 | 0.64 |
| NCI-H2126 | 0.981 | – | 0.882 | 0.864 | 0.766 | 0.642 | 0.808 | 0.792 | 0.824 | 0.665 | 0.712 | 0.703 | 1.14 | 1.09 | 1.16 | 0.788 | 0.743 | 0.855 | – | 1.17 |
| NCI-H2023 | 0.828 | 0.761 | 0.826 | 0.136 | – | 0.738 | 0.82 | 0.244 | 0.51 | 0.338 | 0.387 | 0.19 | 1.2 | 0.945 | 0.319 | 0.659 | 0.603 | 0.613 | 0.438 | 1.02 |
| EKVX | 0.963 | 0.864 | 0.808 | 0.854 | 0.248 | 0.2 | 0.249 | 0.229 | 0.712 | 0.74 | 0.701 | 0.649 | 1.19 | 0.962 | 0.994 | 1.09 | 0.886 | 0.872 | 0.828 | 0.879 |
| COR-L 105 | 1 | – | 1.05 | 0.623 | 0.413 | 0.393 | 0.482 | 0.389 | 0.816 | 0.735 | 1.05 | 0.677 | – | 0.994 | 0.478 | 1.09 | 0.95 | 0.966 | 0.793 | 0.806 |
| NCI-H322M | 1.03 | 1.03 | 1.24 | 1.06 | 0.597 | 0.639 | 0.727 | 0.665 | 0.615 | 0.48 | 0.542 | 0.587 | 1.3 | – | 1.55 | 0.815 | 0.916 | 0.877 | 0.84 | 1.18 |
